{"source": "patent US5683725A", "about": "“Modulation of substance P by compounds containing calcium sulfate and methods relating thereto” (BioFrontiers, Inc., priority 1995, dated 1997)", "key": {"[1]": {"system": "substance P-induced contractions of guinea pig ileum", "assay": "Antagonism of substance P: inhibition of substance P-induced contractions of isolated guinea pig ileum", "conditions": "for Antagonist Activity (% Inhibition): 100 μM, substance P-induced contractions of isolated guinea pig ileum, 37° C., with atropine, diphenhydramine, indomethacin; for Modulation of substance P (in words): conclusion from Table 1", "excerpt": "The ability of the calcium sulfate compounds of this invention to modulate substance P may be assayed by known techniques, such as those disclosed by Mizrahi et al. (Eur. J. Pharmacol. 91:139-140, 1983) and Holzer et al. (P. Eur. J. Pharmacol. 91:83-88, 1983). For example, PanLabs Test Numbers 3-0580 screen the ability of compounds to function as substance P antagonists by determining the ability of the compound to inhibit substance P-induced contractions of guinea pig ileum (see Example 6 herein below).\nThis example illustrates the ability of representative calcium sulfate compounds of this invention to modulate substance P by functioning as substance P antagonists. Activity was measured by the procedures disclosed by Mizrahi et al. (Eur. J. Pharmacol. 91:139-140, 1983) and Holzer et al., (Eur. J. Pharmacol. 91:83-88, 1983). Specifically, isolated guinea pig ileum, bathed in physiological salt solution containing atropine (4.5 μM), diphenhydramaine (3.4 μM), and indomethacin (2.8 μM) at 37° C. was used. The ability of a test compounds to inhibit substance P-induced contractions of the illeum indicates antagonist activity."}, "[2]": {"assay": "Single oral dose toxicity in Sprague Dawley rats, 14 day observation", "type": "in vivo, rat (Sprague Dawley)", "conditions": "single oral dose 5 g/kg", "protocol": "This example illustrates the non-toxic nature of a representative calcium sulfate compound of this invention (i.e., syngenite).\nTo determine the potential toxicity and/or toxic effects of syngenite when administered as a single oral dose in rats, 5 male and 5 female Sprague Dawley rats (200-300 grams) were administered syngenite at a dose level of 5 g/kg body weight by syringe and suitable intubation tubes.\nThe body weight of each rat was recorded (in grams) just prior to administration of syngenite (Day 0), and weekly thereafter for two weeks (i.e., Day 7 and Day 14)."}, "[3]": {"system": "neurogenic inflammation", "conditions": "pretreatment of the oral mucosa; cited from earlier work"}, "[4]": {"system": "cluster headaches", "conditions": "intranasal, humans; cited from earlier work"}, "[5]": {"system": "stomach injury", "conditions": "cited from earlier work"}, "[6]": {"system": "nasal protein output", "conditions": "exogenously applied, allergic rhinitis patients; cited from earlier work"}, "[7]": {"system": "febrile response", "conditions": "microinjected into the preoptic area of conscious guinea pigs; cited from earlier work"}}, "note": "Values joined by “and” are separate entries in the source; they are usually repeats but may differ in a detail not shown here. Identical values can stand only once. No end group written: not given here."}
{"compound": "O.O=S(=O)([O-])[O-].O=S(=O)([O-])[O-].O=S(=O)([O-])[O-].O=S(=O)([O-])[O-].O=S(=O)([O-])[O-].O=S(=O)([O-])[O-].[Ca+2].[Ca+2].[Ca+2].[Ca+2].[Ca+2].[K+].[K+]", "note": "[Gorgeyite]", "values": [{"measurement": "Antagonist Activity (% Inhibition)", "setting": "[1]", "result": 16, "unit": "%"}, {"measurement": "Modulation of substance P (in words)", "setting": "[1]", "result": "effective modulating agents of substance P"}]}
{"compound": "O.O.O=S(=O)([O-])[O-].[Ca+2]", "note": "[Gypsum, calcium sulfate dihydrate]", "values": [{"measurement": "Antagonist Activity (% Inhibition)", "setting": "[1]", "result": 39, "unit": "%"}, {"measurement": "Modulation of substance P (in words)", "setting": "[1]", "result": "effective modulating agents of substance P"}]}
{"compound": "O.O=S(=O)(O)O.O=S(=O)(O)O.[Ca].[K].[K]", "note": "[Syngenite]", "values": [{"measurement": "Body weight, Day 7", "setting": "[2]; female rats", "result": "255 grams and 266 grams and 251 grams and 269 grams and 279 grams"}, {"measurement": "Body weight, Day 14", "setting": "[2]; female rats", "result": "256 grams and 273 grams and 287 grams and 299 grams"}, {"measurement": "Body weight, Day 7", "setting": "[2]; male rats", "result": "350 grams and 333 grams and 329 grams and 336 grams and 337 grams"}, {"measurement": "Body weight, Day 14", "setting": "[2]; male rats", "result": "395 grams and 374 grams and 375 grams and 368 grams and 386 grams"}, {"measurement": "Gross abnormalities at necropsy", "setting": "[2]", "result": "No gross abnormalities in any of the animals were observed"}, {"measurement": "Survival / mortality", "setting": "[2]; 5 male and 5 female rats, 14 days", "result": "All ten test animals survived the 14 day observation period"}, {"measurement": "Appearance of animals", "setting": "[2]; 14 days", "result": "all animals appeared normal"}, {"measurement": "Clinical observations", "setting": "[2]; 14 days", "result": "No clinical observations were noted"}, {"measurement": "Toxicity (overall)", "setting": "[2]; rats", "result": "non-toxic"}, {"measurement": "Antagonist Activity (% Inhibition)", "setting": "[1]", "result": 40, "unit": "%"}, {"measurement": "Modulation of substance P (in words)", "setting": "[1]", "result": "effective modulating agents of substance P"}]}
{"compound": "COc1cc(CNC(=O)CCCC/C=C/C(C)C)ccc1O", "note": "[capsaicin]", "values": [{"measurement": "Neurogenic inflammation upon local administration of substance P", "setting": "[3]", "result": "prevents neurogenic inflammation"}, {"measurement": "Severity of cluster headaches", "setting": "[4]", "result": "decrease the severity of cluster headaches"}, {"measurement": "Area of stomach injury", "setting": "[5]; intragastric, prior to challenge with 30% ETOH", "result": "reduced the area of stomach injury"}]}
{"compound": "substance P: undecapeptide, member of the tachykinin family of mammalian regulatory peptides (RPKPQQFFGLM; ends and bridges not checked; UniProt P20366 58-68, looked up)", "values": [{"measurement": "Nasal protein output", "setting": "[6]", "result": "causes an increase in nasal protein output"}, {"measurement": "Temperature", "setting": "[7]", "result": "caused an increase in temperature"}, {"measurement": "Areas of injury (stomach)", "setting": "[5]; given IV", "result": "increased the areas of injury"}]}
